Measured values from patent publication US12503426B2, “Synthetic derivatives of oleoyl-lysophosphatidylinositol (oleoyl-LPI) and uses thereof” (LIPOVEXA SRL, priority 2017, dated 2025).

Assays:
[1] = tested on: ERK; test: ERK phosphorylation by Western blot, Glutag cells; assay type: cell-based, murine; settings: time course over 2 hours
Method: (§1) When cell cultures reached 80-90%, media were removed and cells were washed twice with 1×PBS. The cells were lysed in 150 μl (for one well of a 6 well plate) of Triton X-100 lysis buffer, containing phosphatase inhibitor cocktail (1:1000) (Sigma Aldrich, UK) and protease inhibitor (1:1000, Sigma Aldrich, UK). Cells were detached with scrapers and lysate were collected and centrifuged at 10,000 rpm, 4° C. for 5 minutes. The supernatant was then transferred to a 1.5 ml microcentrifuge tube and used for protein quantification. Cell lysates were stored at −20° C. for longer storage. All lysates were prepared on ice.
(§2) Non-specific antibody binding was prevented by incubating the nitrocellulose membrane in 5% milk in PBS-0.05% Tween-20 (v/v) for 30 minutes on a rotating plate. The membrane was then washed in PBS-0.05% Tween-20 (v/v) and then incubated with the primary antibody diluted in PBS-0.05% Tween-20 (v/v) on a rotating plate overnight at 4° C. After 24 hours, the membrane was washed 5× for 5 minutes with PBS-0.05% Tween-20 (v/v), and then incubated on a rotating plate with the appropriate secondary antibody for 1 hour at room temperature. […]

[2] = tested on: NCI-H716 cells; test: GLP-1 secretion by NCI-H716 cells (Examples 2-8); assay type: cell-based, human; settings: 2 hours
Method: NCI-H716 cells were maintained in 75 cm^2 tissue culture flasks (Corning) in RPMI 1640 media containing 2.0 mM L-glutamine, 1.5 g/L sodium bicarbonate, 10 mM HEPES buffer, 1.0 mM sodium pyruvate, and 4.5 g/L glucose and supplemented with 10% FBS at a 37° C. and 5% CO2. When plating for experiment, cell adhesion and endocrine differentiation were initiated by growing cells in dishes coated with growth factor reduced Matrigel diluted at the ratio of 1:2 (Becton Dickinson, Bedford, MA) in high-glucose DMEM, 10% FBS, 2 mM glutamine, 100 IU/ml penicillin, and 100 μg/ml streptomycin as described previously by De Bruine, a P., Dinjens, W. N., van der Linden, E. P., Pijls, M. M., Moerkerk, P. T., & Bosman, F. T. (1993) The American Journal of Pathology, Vol 142(3), pp 773-782, the disclosure of which is incorporated herein in its entirety by reference.
(§3) Approximately 80,000 Glutag cells were plated in poly-L-lysine-coated 24-well culture plates and grown to about 80% confluence. NCI-H716 cells were seeded on growth factor reduced Matrigel™ (Becton Dickinson, Bedford, MA) in DMEM medium, supplemented with 10% FBS the day before the experiment. For NCI-H716 cells, approximately 25,000 cells were needed for this secretion experiment in order to have good stimulation with lower basal GLP-1 secretion. In brief, Glutag and NCI-H716 cells were washed twice and then incubated for 2 h with FBS-free DMEM containing 1% (M:C) alone (negative control), 10 μM forskolin as positive control (Sigma-Aldrich), or with different concentrations of Oleoyl-LPI. M:C was used as a solvent to prepare stock solutions of fatty acid derivatives and inhibitors. For secretion experiments, medium and cells were collected separately.
In separate studies, GLUTag or NCI-H716 cells were pre-treated for 1 hour with medium alone (1% DMSO, negative control), PD98059 (50 μM; Sigma Chemical Co.), H89 (10 μM; Santa Cruz) followed by treatment with oleoyl-LPI (20 μM), OEA (10 μM), AR231453(1 μM), PMA (10 μM) or forskolin (10 μM, positive control) in the presence of inhibitors, as appropriate, for about 2 h. Medium GLP-1 secretion was calculated as total GLP-1 content of medium normalised for the basal secretion of the control.
In order to investigate the role of different LPI species in enteroendocrine cells, murine (Glutag) and human (NCI-H716) L-cells were stimulated with the following different species of LPI: Arachidonyl-LPI, Stearoyl-LPI, Heptadecenoyl-LPI and oleoyl-LPI, as well as with OEA and LPC. Experiments were performed in duplicate, n=4 and the level of total GLP-1 was measured by ELISA.

[3] = tested on: CREB; test: CREB phosphorylation by Western blot; assay type: cell-based; settings: H89 10 μM pre-treatment or oleoyl-LPI in control cells
Method: as §1, §2

[4] = tested on: Glutag and NCI-H761 cells; test: Dose response of GLP-1 release at different glucose concentrations; assay type: cell-based; settings: 5 mM glucose, 2 hours, percentage of vehicle control
Method: Panels A and B show results of dose response of GLP-1 release in different glucose concentration of 5 mM (panel A) and 10 mM (panel B). The dose response of GLP-1 released was normalised of number of cells measured in parallel. Glutag and […] cells were incubated with vehicle alone, oleoyl-LPI, OEA, LPC forskolin (10 μM) and PMA (1 μM) as positive control for 2 hours. Results were normalised as percentage of cell treated with vehicle (control). For panels A and B data are shown as means±SEM of n=3 from independent experiments performed in duplicates. Student t-test: *p<0.05, **P<0.01. Panel C show results of dose response of GLP-1 release in a glucose concentration of 20 mM.
as §3
To determine the effect of glucose in oleoyl-LPI induced GLP-1 secretion, the inventors conducted dose-response experiment in the presence of 5 mM and 10 mM glucose in the secretion medium with the results outlined in FIG. 2A and FIG. 2B.

oleoyl-lysophosphatidylinositol [oleoyl-LPI]
p-ERK, time course [1]: increased p-ERK within 10 min and sustained a high level for 120 min
GLP-1 secretion ([2]; NCI-H716 cells, normalised as percentage of cells treated with vehicle (control)): 124±7.4%
effect of down-regulation of GPR55 on GLP-1 secretion ([2]; siGPR55 transfected NCI-H716 cells, oleoyl-LPI 20 μM): no effect on GLP-1 secretion
GLP-1 secretion in siGPR119-transfected cells ([2]; siGPR119 transfected NCI-H716 cells, oleoyl-LPI 20 μM): significantly reduced the GLP-1 secretion to the basal level
phosphorylation of CREB [3]: able to stimulate CREB phosphorylation
GLP-1 secretion ([4]; 10 μM): 126±8%
GLP-1 secretion ([4]; 20 μM): 223±23%
GLP-1 secretion ([4]; 50 μM): 333±45%
